We go through 2 compounds from patent publication US20240270810A1, “PREPARATION AND APPLICATION OF POLYPEPTIDE” (GUANGDONG RAYNOVENT BIOTECH CO., LTD., priority 2021, published 2024).

A word on the AUC(0-t): it is exposure summed from dosing to a finite time, without extrapolation to infinity. For orientation: Cmax means the highest concentration seen after dosing. As a reminder, the Tmax is the time from dosing to the highest level. Usually half-life stands for the time in which the quantity being followed falls by half. Read a low half-life as fast loss.

Molecules are shown by their SMILES.

Data set [1] in a line: in vivo. Further details: species or system Cynomolgus macaques. Conditions: cynomolgus monkey, sc, 0.02 mg/kg. On the procedure: The pharmacokinetic characteristics in mammals following intravenous injection and subcutaneous injection of the compounds were tested using standard protocols. In the experiment, the candidate compounds were formulated into clear solution, which was administered to Cynomolgus macaques by single subcutaneous injection (SC, 0.02 mpk). The vehicle for subcutaneous injection was citrate buffer solution (20 mM, pH=7). The whole blood was collected and processed to get the plasma. The drug concentration was analyzed by LC-MS/MS, and the pharmacokinetic parameters were calculated using Phoenix WinNonlin software.

Data set [2] in a line: in vivo. To be noted: sc, 0.048 mg/kg. Further details: species or system C57BL/6 mice. On the procedure:
The pharmacokinetic characteristics in rodent animals following subcutaneous injection of the compounds were tested using standard protocols. In the experiment, the candidate compounds were formulated into clear solution, which was administered by subcutaneous injection (SC, 0.048 mpk). The vehicle for subcutaneous injection was citrate buffer solution (20 mM, pH=7). The whole blood was collected and processed to get the plasma. The drug concentration was analyzed by LC-MS/MS, and the pharmacokinetic parameters were calculated using Phoenix WinNonlin software.

The next data set concerns human plasma albumin. Format: in vitro ADME. The method, then: (§1) To study the binding of the test compounds to human/mouse plasma albumin. • 1. Blank matrix preparation: On the day of the experiment, the plasma was thawed in cold water and centrifuged at 3220 rpm for 5 min to remove all the blood clots. The pH of the resulting plasma was measured and adjusted to 7.4±0.1 with 1% of phosphoric acid or 1 N of sodium hydroxide as desired. • 2. Dilution of the test compounds: the test compounds were dissolved in dimethyl sulfoxide (DMSO) to prepare stock solutions of 10 mM and 2 mM, respectively. 2 μL of the stock solution (2 mM) was diluted with 98 μL of DMSO to obtain a working solution of 40 μM. 10 μL of the stock solution was diluted with 240 μL of DMSO to obtain a working solution of control compounds of 400 μM. A working solution of the compounds (5 μL) was mixed evenly with a blank matrix (995 μL) at a ratio of 1:200 to prepare a loading matrix. • 3. Analytical procedure • 3.1 Equal amounts of 30 μL of the loading matrix (n=2) were transferred into a sample collection plate to prepare Time 0 (T0) samples for residue determination. The samples were immediately matched with corresponding blank buffer to a final volume of 60 μL, with a volume ratio of plasma (the loading matrix) to buffer being 1:1 in each well. Then, into the T0 samples of the test compounds were respectively added 60 μL of 4% H3PO4 in H2O and 480 μL of stop solution containing internal standard. They were then stored at 2° C. to 8° C. together with other samples for further treatment. • 3.2 The remaining plasma samples were pre-incubated in a carbon dioxide incubator at 37±1° C. for 30 min. Protein-free samples (F samples) were prepared. Matrix-loaded samples (230 μL) were all transferred into polycarbonate tubes (n=2) and ultracentrifuged at 37° C. and 155,000×g (35000 rpm) for 4 h. • 3.3 To prepare T samples (test samples), an additional matrix-containing sample was transferred into a separate 96-well plate (sample incubation plate) and incubated at 37° C. for 4 h. • 3.4 At the end of centrifugation, 30 μL of protein-free samples (F samples) and 30 μL of T samples were taken from the second layer (beneath the upper layer) of the supernatant and transferred into a new sample collection plate. Each sample was mixed with corresponding blank buffer or matrix to a final volume of 60 μL, and the blank matrix:buffer volume ratio is 1:1. Into all the samples were added 60 μL of 4% H3PO4 solution in water and 480 μL of stop solution containing internal standard. The mixture was centrifuged at 4000 rpm for 20 min. 100 μL of supernatant for each sample was taken for LC-MS/MS analysis.

The next data set concerns mouse plasma albumin. It is filed as in vitro ADME. On the procedure:
as §1

The nature of a further data set: in vitro. Conditions: mouse, plasma. Format: in vitro ADME. The method, then:
To study the stability of the test compounds in the plasma of normal mice. • 1. Before the experiment, the clotted frozen plasma was thawed in a water bath at 37° C. The resulting plasma was centrifuged at 4000 rpm for 5 min. If there is blood clot, remove the clot and adjust the pH to 7.4±0.1. • 2. The test compound solution was prepared by diluting the compounds with DMSO to prepare a solution of 100 μM. • 3. 98 μL of plasma, as a blank control, was added with 2 μL of the test compound solution (100 μM) to get a mixed solution with a final concentration of 2 μM, which was incubated in a water bath at 37° C. • 4. 100 μL of H3PO4 solution and 800 μL of stop solution (a 100% solution of 200 ng/mL tolbutamide and 200 ng/ml labetalol in methanol) were respectively added at each time point (0, 10, 30, 60, and 120 min) to precipitate protein, which was then mixed thoroughly. • 5. The samples were centrifuged at 4000 rpm for 20 min, and 100 μL of supernatant was taken from each well for LC-MS/MS analysis.

Consider `CC[C@H](C)[C@H](NC(=O)[C@H](CC(C)C)NC(=O)[C@H](Cc1c[nH]c2ccccc12)NC(=O)[C@H](CCC(=O)O)NC(=O)[C@@H](NC(=O)[C@H](Cc1ccccc1)NC(=O)[C@H](C)NC(=O)[C@@H]1CCCCNC(=O)CN(C(=O)COCCOCCNC(=O)COCCOCCNC(=O)CC[C@H](NC(=O)CCCCCCCCCCCCCCCCCCC(=O)O)C(=O)O)CC(=O)NCCCC[C@H](NC(=O)[C@H](CCCCN)NC(=O)[C@H](CC(=O)O)NC(=O)[C@H](CC(C)C)NC(=O)C(C)(C)NC(=O)[C@@H](NC(=O)[C@H](CO)NC(=O)[C@H](Cc2ccc(O)cc2)NC(=O)[C@H](CC(=O)O)NC(=O)[C@H](CO)NC(=O)[C@@H](NC(=O)[C@H](Cc2ccccc2)NC(=O)[C@@H](NC(=O)CNC(=O)[C@H](CCC(=O)O)NC(=O)C(C)(C)NC(=O)[C@@H](N)Cc2ccc(O)cc2)[C@@H](C)O)[C@@H](C)O)[C@@H](C)CC)C(=O)N[C@@H](C)C(=O)N[C@@H](CCC(N)=O)C(=O)N1)C(C)C)C(=O)N[C@@H](C)C(=O)NCC(=O)NCC(=O)N1CCC[C@H]1C(=O)N[C@@H](CO)C(=O)N[C@@H](CO)C(=O)NCC(=O)N[C@@H](C)C(=O)N1CCC[C@H]1C(=O)N1CCC[C@H]1C(=O)N1CCC[C@H]1C(=O)N[C@@H](CO)C(N)=O` [WX-005], for which the figures for the exposure AUC(0-t) in “in vivo [1]” and in “in vivo [2]” (mouse) were 4.47 µM·h and 2.24 µM·h, respectively. Besides, the Cmax in the data set “in vivo [1]” turned out to be 36 nM; in “in vivo [2]” (C57BL/6, mouse), 79 nM. In addition, the Tmax in “in vivo [1]” turned out to be 24 h; in “in vivo [2]” (mouse), 12 h. The half-life in “in vivo [1]” is 100 h; in the data set “in vivo [2]” (mouse) it was 16 h; in the data set “in vitro”, > 4.82 h. Further, the “PPB % unbound (H/M), H” value in the data set with human plasma albumin is given as “NA/NA”. Moreover, the “PPB % unbound (H/M), M” value in the data set on mouse plasma albumin is “NA/NA”.

As to `CC[C@H](C)[C@H](NC(=O)[C@H](CC(C)C)NC(=O)[C@H](Cc1c[nH]c2ccccc12)NC(=O)[C@H](CCC(=O)O)NC(=O)[C@@H](NC(=O)[C@H](Cc1ccccc1)NC(=O)[C@H](CCC(=O)O)NC(=O)[C@@H]1CCCCNC(=O)CN(C(=O)COCCOCCNC(=O)COCCOCCNC(=O)CC[C@H](NC(=O)CCCCCCCCCCCCCCCCCCC(=O)O)C(=O)O)CC(=O)NCCCC[C@H](NC(=O)[C@H](CCCCN)NC(=O)[C@H](CC(=O)O)NC(=O)[C@H](CC(C)C)NC(=O)C(C)(C)NC(=O)[C@@H](NC(=O)[C@H](CO)NC(=O)[C@H](Cc2ccc(O)cc2)NC(=O)[C@H](CC(=O)O)NC(=O)[C@H](CO)NC(=O)[C@@H](NC(=O)[C@H](Cc2ccccc2)NC(=O)[C@@H](NC(=O)CNC(=O)[C@H](CCC(=O)O)NC(=O)C(C)(C)NC(=O)[C@@H](N)Cc2ccc(O)cc2)[C@@H](C)O)[C@@H](C)O)[C@@H](C)CC)C(=O)N[C@@H](C)C(=O)N[C@@H](CCC(N)=O)C(=O)N1)C(C)C)C(=O)N[C@@H](C)C(=O)NCC(=O)NCC(=O)N1CCC[C@H]1C(=O)N[C@@H](CO)C(=O)N[C@@H](CO)C(=O)NCC(=O)N[C@@H](C)C(=O)N1CCC[C@H]1C(=O)N1CCC[C@H]1C(=O)N1CCC[C@H]1C(=O)N[C@@H](CO)C(N)=O` [WX-009], the Cmax turned out to be 37 nM in the data set “in vivo [1]” and 59 nM in the data set “in vivo [2]” (C57BL/6, mouse). In addition, the Tmax in “in vivo [1]” was 24 h; in “in vivo [2]” (C57BL/6, mouse), 12 h. Also, the “PPB % unbound (H/M), H” value in the data set on human plasma albumin is “NA/NA”. Besides, the “PPB % unbound (H/M), M” value in the data set with mouse plasma albumin is reported as “NA/NA”. The half-life at 2 μM in “in vitro” (pH 7.4) is > 3.98 h.
